Experimental data published in patent US20240376121A1, “COMPOUNDS AND USES THEREOF” (Foghorn Therapeutics Inc., priority 2021, published 2024).

Tests used:
[1] = molecular target: T1, HiBit-BRM fusion protein (Homo sapiens, UniProt P51531); experiment: HiBiT-BRM cell-based degradation assay (Nano-Glo HiBiT Lytic Detection); conditions: stable HeLa cell line expressing HiBiT-BRM, 24 h incubation; for BRM HiBit Degradation Maximum (%): top dose 30 μM; for DC50: read-out: BRM HiBit Degradation IC50
T1 construct: expressed in transfected cells
Protocol: (§1) Procedure: A stable HeLa cell line expressing HiBiT-BRM was generated. On day 0, 5000 cells were seeded in 40 μL of media into each well of 384-well cell culture plates. On day 1, cells were treated with 120 nL DMSO or 120 nL of 3-fold serially DMSO-diluted compounds (10 points in duplicate with 30 μM as final top dose). Subsequently plates were incubated for 24 h in a standard tissue culture incubator and equilibrated at room temperature for 15 minutes. Nano-Glo HiBiT Lytic Detection System (Promega N3050) reagent was freshly prepared and 20 ul was added to each well. Upon addition of this LgBit-containing reagent, the HiBiT and LgBiT proteins associate to form the luminescent NanoBiT luciferase. The plates were shaken for 10 minutes at room temperature and the bioluminescence read using an EnVision plate reader (PerkinElmer).
(§2) The degradation % was calculated using the following formula: % degradation=100%−100%×(LumSample−LumLC)/(LumHC−LumLC). DMSO treated cells are employed as High Control (HC) and 2 μM of a known BRM/BRG1 degrader standard treated cells are employed as Low Control (LC).

[2] = molecular target: T2, HiBit-BRG1 fusion protein (Homo sapiens, UniProt P51532); experiment: HiBiT-BRG1 cell-based degradation assay (Nano-Glo HiBiT Lytic Detection); conditions: stable HeLa cell line expressing HiBit-BRG1 and LgBit, 24 h incubation; for Dmax: top dose 30 μM, read-out: BRG1 HiBit Degradation Maximum (%); for DC50: read-out: BRMG1 HiBit Degradation IC50
T2 construct: expressed in transfected cells
Protocol: as §1
For measurement of BRG1 degradation, a stable HeLa cell line expressing HiBit-BRG1 and LgBit was generated. The same protocol as above was then followed.
as §2

T1 sequence (P51531 whole entry, the tested form may be a part): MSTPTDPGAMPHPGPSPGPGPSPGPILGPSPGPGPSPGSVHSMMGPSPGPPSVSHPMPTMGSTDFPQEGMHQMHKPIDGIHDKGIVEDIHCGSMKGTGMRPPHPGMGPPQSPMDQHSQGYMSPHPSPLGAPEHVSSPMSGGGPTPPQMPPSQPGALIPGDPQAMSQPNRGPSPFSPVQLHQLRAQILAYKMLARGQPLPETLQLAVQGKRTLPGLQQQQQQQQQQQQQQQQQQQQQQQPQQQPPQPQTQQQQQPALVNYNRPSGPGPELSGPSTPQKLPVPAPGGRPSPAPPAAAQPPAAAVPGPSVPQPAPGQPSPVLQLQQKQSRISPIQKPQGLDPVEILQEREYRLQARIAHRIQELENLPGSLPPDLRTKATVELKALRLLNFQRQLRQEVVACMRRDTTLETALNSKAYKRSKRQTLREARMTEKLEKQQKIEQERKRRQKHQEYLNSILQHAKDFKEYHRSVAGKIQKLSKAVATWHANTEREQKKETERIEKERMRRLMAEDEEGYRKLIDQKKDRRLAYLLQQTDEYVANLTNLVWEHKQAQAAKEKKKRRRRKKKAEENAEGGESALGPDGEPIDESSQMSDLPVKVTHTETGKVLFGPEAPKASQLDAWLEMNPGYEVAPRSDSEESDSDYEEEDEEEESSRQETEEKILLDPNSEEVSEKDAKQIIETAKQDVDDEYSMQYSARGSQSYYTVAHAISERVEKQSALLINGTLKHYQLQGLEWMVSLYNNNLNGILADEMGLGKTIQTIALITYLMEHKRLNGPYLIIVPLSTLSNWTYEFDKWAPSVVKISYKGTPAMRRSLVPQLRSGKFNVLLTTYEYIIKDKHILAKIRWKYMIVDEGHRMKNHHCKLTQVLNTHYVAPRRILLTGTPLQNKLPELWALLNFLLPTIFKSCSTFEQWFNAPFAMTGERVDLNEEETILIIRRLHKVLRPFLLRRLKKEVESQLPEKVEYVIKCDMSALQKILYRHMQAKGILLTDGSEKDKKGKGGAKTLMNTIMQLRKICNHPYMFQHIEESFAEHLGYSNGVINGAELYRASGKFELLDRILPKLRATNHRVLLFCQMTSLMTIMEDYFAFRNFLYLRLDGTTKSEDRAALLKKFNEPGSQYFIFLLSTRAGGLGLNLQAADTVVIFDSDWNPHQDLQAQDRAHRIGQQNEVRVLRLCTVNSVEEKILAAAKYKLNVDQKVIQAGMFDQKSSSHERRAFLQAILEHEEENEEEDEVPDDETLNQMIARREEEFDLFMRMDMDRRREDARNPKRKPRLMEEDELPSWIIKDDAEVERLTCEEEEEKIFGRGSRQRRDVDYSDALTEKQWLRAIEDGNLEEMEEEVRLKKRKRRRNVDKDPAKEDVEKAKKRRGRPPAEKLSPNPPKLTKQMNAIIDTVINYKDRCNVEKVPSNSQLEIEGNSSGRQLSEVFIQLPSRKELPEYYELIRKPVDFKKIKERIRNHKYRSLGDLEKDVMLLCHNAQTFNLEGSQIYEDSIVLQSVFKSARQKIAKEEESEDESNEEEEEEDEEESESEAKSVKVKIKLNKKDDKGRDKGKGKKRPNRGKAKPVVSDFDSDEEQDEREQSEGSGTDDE
T2 sequence (P51532 whole entry, the tested form may be a part): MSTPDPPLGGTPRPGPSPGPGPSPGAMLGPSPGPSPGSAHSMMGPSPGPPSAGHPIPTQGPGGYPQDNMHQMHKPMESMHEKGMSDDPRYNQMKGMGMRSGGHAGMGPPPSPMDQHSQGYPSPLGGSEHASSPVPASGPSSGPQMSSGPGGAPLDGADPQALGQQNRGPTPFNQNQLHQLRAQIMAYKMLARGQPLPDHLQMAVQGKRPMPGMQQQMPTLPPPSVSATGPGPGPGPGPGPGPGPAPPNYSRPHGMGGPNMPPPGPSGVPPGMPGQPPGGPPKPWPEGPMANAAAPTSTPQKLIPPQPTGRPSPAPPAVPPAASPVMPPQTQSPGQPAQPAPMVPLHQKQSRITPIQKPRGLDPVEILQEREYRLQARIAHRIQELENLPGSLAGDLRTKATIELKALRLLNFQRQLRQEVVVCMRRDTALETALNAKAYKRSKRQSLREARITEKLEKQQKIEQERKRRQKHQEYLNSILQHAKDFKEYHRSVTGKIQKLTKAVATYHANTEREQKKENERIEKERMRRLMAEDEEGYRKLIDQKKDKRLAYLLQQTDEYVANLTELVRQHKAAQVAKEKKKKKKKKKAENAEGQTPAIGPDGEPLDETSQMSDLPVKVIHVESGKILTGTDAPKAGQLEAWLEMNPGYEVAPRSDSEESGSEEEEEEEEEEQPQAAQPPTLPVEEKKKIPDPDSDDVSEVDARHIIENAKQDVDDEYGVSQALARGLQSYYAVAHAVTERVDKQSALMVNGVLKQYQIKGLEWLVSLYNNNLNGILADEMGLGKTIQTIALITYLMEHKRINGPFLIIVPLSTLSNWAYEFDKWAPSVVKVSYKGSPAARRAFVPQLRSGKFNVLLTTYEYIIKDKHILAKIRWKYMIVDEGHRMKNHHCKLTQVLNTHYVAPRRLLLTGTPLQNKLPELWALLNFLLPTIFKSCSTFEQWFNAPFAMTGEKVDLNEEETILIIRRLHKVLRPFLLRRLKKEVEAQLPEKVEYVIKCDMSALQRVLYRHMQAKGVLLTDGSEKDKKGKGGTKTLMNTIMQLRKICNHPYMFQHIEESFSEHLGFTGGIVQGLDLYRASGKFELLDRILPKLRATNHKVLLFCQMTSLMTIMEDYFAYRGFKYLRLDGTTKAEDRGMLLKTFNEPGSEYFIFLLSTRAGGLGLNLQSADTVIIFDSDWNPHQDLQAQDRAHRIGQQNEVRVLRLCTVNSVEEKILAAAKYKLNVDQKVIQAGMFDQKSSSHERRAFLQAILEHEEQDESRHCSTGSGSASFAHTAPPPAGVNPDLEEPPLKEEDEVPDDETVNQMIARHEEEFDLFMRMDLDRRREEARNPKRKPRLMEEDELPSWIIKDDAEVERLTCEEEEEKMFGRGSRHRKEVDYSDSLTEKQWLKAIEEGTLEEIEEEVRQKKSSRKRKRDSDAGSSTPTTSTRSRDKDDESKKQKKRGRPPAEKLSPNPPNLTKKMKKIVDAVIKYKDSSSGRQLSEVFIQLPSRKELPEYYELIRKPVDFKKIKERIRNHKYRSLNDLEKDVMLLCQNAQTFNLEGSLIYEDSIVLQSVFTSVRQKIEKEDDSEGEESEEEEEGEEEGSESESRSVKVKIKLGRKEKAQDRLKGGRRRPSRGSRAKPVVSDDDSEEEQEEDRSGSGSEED

DC50 [1] [nM]	Dmax [2] [%]	DC50 [2] [nM]	Compound	BRM HiBit Degradation Maximum (%) [1]
≥ 10	< 50	≥ 1000	Cc1ncsc1-c1ccc([C@H](C)NC(=O)[C@@H]2C[C@@H](O)CN2C(=O)C(c2cc(C3CC(N4CCC(c5sc6nnc(-c7ccccc7O)cc6c5C)CC4)C3)no2)C(C)C)cc1 (single isomer, unassigned) [Compound 34]	A (“A” indicates maximum degradation ≥ 75%)
≥ 1000	< 50	≥ 1000	Cc1ncsc1-c1ccc([C@H](C)NC(=O)[C@@H]2C[C@@H](O)CN2C(=O)[C@@H](c2cc(N3CCN(C(=O)[C@@H]4CCc5sc6nnc(-c7ccccc7O)cc6c5C4)CC3)no2)C(C)C)cc1 (single isomer, unassigned) [Compound 53]	C (“C” indicates maximum degradation < 50%)
≥ 1000	< 50	≥ 1000	Cc1ncsc1-c1ccc(CNC(=O)[C@@H]2C[C@@H](O)CN2C(=O)[C@H](c2cc(N3CCOCC3)no2)C(C)C)c(OCCCN2CCC(c3sc4nnc(-c5ccccc5O)cc4c3C)CC2)c1 (single isomer, unassigned) [Compound 55]	A (“A” indicates maximum degradation ≥ 75%)
≥ 10	< 50	≥ 1000	Cc1ncsc1-c1ccc(CNC(=O)[C@@H]2C[C@@H](O)CN2C(=O)[C@@H](c2cc(N3CCOCC3)no2)C(C)C)c(OCCCN2CCC(c3sc4nnc(-c5ccccc5O)cc4c3C)CC2)c1 (single isomer, unassigned) [Compound 56]	B (“B” indicates maximum degradation ≥ 50%)
≥ 10	< 50	≥ 1000	Cc1ncsc1-c1ccc([C@H](C)NC(=O)[C@@H]2C[C@@H](O)CN2C(=O)[C@@H](c2cc(OCCN3CC(c4cc5cc(-c6ccccc6O)nnc5s4)C3)no2)C(C)C)cc1 [Compound 1, (2S,4R)-4-hydroxy-1-((R)-2-(3-(2-(3-(3-(2-hydroxyphenyl)thieno[2,3-c]pyridazin-6-yl)azetidin-1-yl)ethoxy)isoxazol-5-yl)-3-methylbutanoyl)-N—((S)-1-(4-(4-methylthiazol-5-yl)phenyl)ethyl)pyrrolidine-2-carboxamide]	B (“B” indicates maximum degradation ≥ 50%)
≥ 10	< 50	≥ 1000	Cc1ncsc1-c1ccc([C@H](C)NC(=O)[C@@H]2C[C@@H](O)CN2C(=O)[C@@H](c2cc(OCCN3CCC(c4cc5cc(-c6ccccc6O)nnc5s4)CC3)no2)C(C)C)cc1 [Compound 2, (2S,4R)-4-hydroxy-1-((R)-2-(3-(2-(4-(3-(2-hydroxyphenyl)thieno[2,3-c]pyridazin-6-yl)piperidin-1-yl)ethoxy)isoxazol-5-yl)-3-methylbutanoyl)-N—((S)-1-(4-(4-methylthiazol-5-yl)phenyl)ethyl)pyrrolidine-2-carboxamide]	A (“A” indicates maximum degradation ≥ 75%)
≥ 100	< 50	≥ 1000	Cc1ncsc1-c1ccc([C@H](C)NC(=O)[C@@H]2C[C@@H](O)CN2C(=O)[C@@H](c2cc(N3CCN(C(=O)CN4CC(c5cc6cc(-c7ccccc7O)nnc6s5)C4)CC3)no2)C(C)C)cc1 [Compound 3, (2S,4R)-4-hydroxy-1-[(2R)-2-{3-[4-(2-{3-[3-(2-hydroxyphenyl)thieno[2,3-c]pyridazin-6-yl]azetidin-1-yl}acetyl)piperazin-1-yl]-1,2-oxazol-5-yl}-3-methylbutanoyl]-N-[(1S)-1-[4-(4-methyl-1,3-thiazol-5-yl)phenyl]ethyl]pyrrolidine-2-carboxamide]	A (“A” indicates maximum degradation ≥ 75%)
≥ 1000	< 50	≥ 1000	Cc1ncsc1-c1ccc([C@H](C)NC(=O)[C@@H]2C[C@@H](O)CN2C(=O)[C@H](c2cc(N3CCC(C(=O)N4CC(c5cc6cc(-c7ccccc7O)nnc6s5)C4)CC3)no2)C(C)C)cc1 [Compound 4, (2S,4R)-4-hydroxy-1-((S)-2-(3-(4-(3-(3-(2-hydroxyphenyl)thieno[2,3-c]pyridazin-6-yl)azetidine-1-carbonyl)piperidin-1-yl)isoxazol-5-yl)-3-methylbutanoyl)-N—((S)-1-(4-(4-methylthiazol-5-yl)phenyl)ethyl)pyrrolidine-2-carboxamide]	C (“C” indicates maximum degradation < 50%)
≥ 10	< 50	≥ 1000	Cc1ncsc1-c1ccc([C@H](C)NC(=O)[C@@H]2C[C@@H](O)CN2C(=O)[C@@H](c2cc(N3CCC(C(=O)N4CC(c5cc6cc(-c7ccccc7O)nnc6s5)C4)CC3)no2)C(C)C)cc1 [Compound 5, (2S,4R)-4-hydroxy-1-((R)-2-(3-(4-(3-(3-(2-hydroxyphenyl)thieno[2,3-c]pyridazin-6-yl)azetidine-1-carbonyl)piperidin-1-yl)isoxazol-5-yl)-3-methylbutanoyl)-N—((S)-1-(4-(4-methylthiazol-5-yl)phenyl)ethyl)pyrrolidine-2-carboxamide]	A (“A” indicates maximum degradation ≥ 75%)
≥ 100	< 50	≥ 1000	Cc1ncsc1-c1ccc([C@H](C)NC(=O)[C@@H]2C[C@@H](O)CN2C(=O)[C@@H](c2cc(N3CCN(CC(=O)N4CC(c5cc6cc(-c7ccccc7O)nnc6s5)C4)CC3)no2)C(C)C)cc1 [Compound 6, (2S,4R)-4-hydroxy-1-[(2R)-2-{3-[4-(2-{3-[3-(2-hydroxyphenyl)thieno[2,3-c]pyridazin-6-yl]azetidin-1-yl}-2-oxoethyl)piperazin-1-yl]-1,2-oxazol-5-yl}-3-methylbutanoyl]-N-[(1S)-1-[4-(4-methyl-1,3-thiazol-5-yl)phenyl]ethyl]pyrrolidine-2-carboxamide]	B (“B” indicates maximum degradation ≥ 50%)
≥ 10	< 50	≥ 1000	Cc1ncsc1-c1ccc([C@H](C)NC(=O)[C@@H]2C[C@@H](O)CN2C(=O)[C@@H](c2cc(N3CCC(CN4CC(c5cc6cc(-c7ccccc7O)nnc6s5)C4)CC3)no2)C(C)C)cc1 [Compound 7]	A (“A” indicates maximum degradation ≥ 75%)
< 10	< 50	≥ 1000	Cc1ncsc1-c1ccc([C@H](C)NC(=O)[C@@H]2C[C@@H](O)CN2C(=O)[C@@H](c2cc(OCCN3CCC(c4sc5nnc(-c6ccccc6O)cc5c4C)CC3)no2)C(C)C)cc1 [Compound 8, (2S,4R)-4-hydroxy-1-[(2R)-2-[3-(2-{4-[3-(2-hydroxyphenyl)-5-methylthieno[2,3-c]pyridazin-6-yl]piperidin-1-yl}ethoxy)-1,2-oxazol-5-yl]-3-methylbutanoyl]-N-[(1S)-1-[4-(4-methyl-1,3-thiazol-5-yl)phenyl]ethyl]pyrrolidine-2-carboxamide]	A (“A” indicates maximum degradation ≥ 75%)
≥ 10	< 50	≥ 1000	Cc1ncsc1-c1ccc([C@H](C)NC(=O)[C@@H]2C[C@@H](O)CN2C(=O)[C@@H](c2cc(OCCN3CC(c4cc5nnc(-c6ccccc6O)cc5s4)C3)no2)C(C)C)cc1 [Compound 9, (2S,4R)-4-hydroxy-1-((R)-2-(3-(2-(3-(3-(2-hydroxyphenyl)thieno[3,2-c]pyridazin-6-yl)azetidin-1-yl)ethoxy)isoxazol-5-yl)-3-methylbutanoyl)-N—((S)-1-(4-(4-methylthiazol-5-yl)phenyl)ethyl)pyrrolidine-2-carboxamide]	A (“A” indicates maximum degradation ≥ 75%)
≥ 10	< 50	≥ 1000	Cc1ncsc1-c1ccc([C@H](C)NC(=O)[C@@H]2C[C@@H](O)CN2C(=O)[C@@H](c2cc(N3CCC(C(=O)N4CC(c5sc6nnc(-c7ccccc7O)cc6c5C)C4)CC3)no2)C(C)C)cc1 [Compound 10]	A (“A” indicates maximum degradation ≥ 75%)
≥ 100	< 50	≥ 1000	Cc1ncsc1-c1ccc([C@H](C)NC(=O)[C@@H]2C[C@@H](O)CN2C(=O)[C@@H](c2cc(N3CCC(C(=O)N4CCc5sc6nnc(-c7ccccc7O)cc6c5C4)CC3)no2)C(C)C)cc1 [Compound 11, (2S,4R)-4-hydroxy-1-((R)-2-(3-(4-(3-(2-hydroxyphenyl)-5,6,7,8-tetrahydropyrido[3′,4′:4,5]thieno[2,3-c]pyridazine-6-carbonyl)piperidin-1-yl)isoxazol-5-yl)-3-methylbutanoyl)-N—((S)-1-(4-(4-methylthiazol-5-yl)phenyl)ethyl)pyrrolidine-2-carboxamide]	A (“A” indicates maximum degradation ≥ 75%)
≥ 1000	< 50	≥ 1000	Cc1ncsc1-c1ccc([C@H](C)NC(=O)[C@@H]2C[C@@H](O)CN2C(=O)[C@H](c2cc(C3CCN(C(=O)CN4CC(c5cc6cc(-c7ccccc7O)nnc6s5)C4)CC3)no2)C(C)C)cc1 [Compound 12]	C (“C” indicates maximum degradation < 50%)
